Reference: patent US9457045B2, “Combination of anti-clusterin oligonucleotide with Hsp90 inhibitor for the treatment of prostate cancer” (The University of British Columbia, priority 2011, dated 2016)
Read-outs that look alike come from different tables or passages of the source. Each block holds one compound with its values, some of them ahead of it. In the oligonucleotide strings, read from the 5' end, every base follows the letter of its sugar. An asterisk marks phosphorothioate; unmarked linkages are phosphodiester. Other units and linkages are bracketed, terminal groups are in braces. A string of capitals states the bases alone. e = 2'-O-(2-methoxyethyl) (MOE); [5mC] = 5-methylcytosine; d = 2'-deoxy (DNA)

Columns and labels:
HSF-1 = test: HSE-luciferase assay of HSF-1 activity; format: cell-based, human
Experimental: FIG. 3. CLU induction following Hsp90 inhibitor treatment is cytoprotective via an increase of HSF-1 activity. A, LNCaP cells were treated with indicated concentrations of Hsp90i-1 or Hsp90i-2 for 48 h. B, LNCaP cells were transiently transfected with indicated concentrations of CLU-plasmid for 48 h. Total amount of plasmid DNA transfected was normalized to 2 μg per well by the addition of an empty vector. C (Top), LNCaP cells were transfected with 20 nM CLU siRNA or control siScr, followed of Hsp90i-1 or Hsp90i-2 treatment (1 μM) for 48 h. C (bottom), LNCaP cells were treated twice with 300 nM custirsen or control ScrB ASO. D, LNCaP and PC-3 cells were treated twice with 300 nM custirsen or control ScrB ASO, followed by 1 μM of Hsp90i-1 or Hsp90i-2 for 48 h. Cells were harvested, and HSE-luciferase activity or western blotting analyses were performed. Means of at least three independent experiments done in triplicate. ***, p<0.001; *, p<0.05; ns, not significant.
LNCaP and C4-2 cells (2.5×10^5) were plated on six-plates and transfected using lipofectin (6 μL per well; Invitrogen Life Technologies, Inc.). The total amount HSE plasmids DNA used were normalized to 1 μg per well by the addition of a control plasmid. One μM HSP90i-2 or Hsp90i-1 was added 4 h after the transfection and for 48 h. HSE-luciferase activity was measured using Dual-Luciferase Reporter Assay System (Promega) with the aid of a microplate luminometer (EG&G Berthold). All experiments were carried out in triplicate wells and repeated 3 times using different preparations of plasmids.

[1] = 60 mg/kg/day (Glaze et al., 2005); cited from earlier work
Hsp70 = Hsp70 expression in CRPC LNCaP xenografts (immunohistochemistry); format: in vivo, mice; conditions: 50 mg/kg Hsp90i-2-PRO for 6 weeks
Experimental: (§1) FIG. 2. Hsp90i-2 induces HSP and CLU expression in PCa xenografts. Mice were treated for 6 weeks with 50 mg/kg Hsp90i-2-PRO (the prodrug of Hsp90i-2) or vehicle (Control). A, tumors were collected and CLU and Hsp70 were evaluated by immunohistochemical analysis. B, total proteins were extracted from the xenograft tumors and CLU expression was analyzed by western blotting. The relative levels were normalized with GAPDH and estimated in densitometric units. ***, p<0.001.
(§2) Male athymic nude mice (Harlan Sprague-Dawley, Inc.) were injected s.c. with 2×10^6 LNCaP cells (suspended in 0.1 mL Matrigel; BD Biosciences). The mice were castrated once tumors reach between 300 and 500 mm^3 or the PSA level increased above 50 ng/mL. Once tumors progressed to castrate resistance, mice were randomly assigned to vehicle, Hsp90i-2-PRO alone, Hsp90i-2-PRO+ScrB ASO or Hsp90i-2-PRO+custirsen. […] Tumor volume was measured twice weekly (length×width×depth×0.5432). Serum PSA was determined weekly by enzymatic immunoassay (Abbott IMX, Montreal, Quebec, Canada). PSA doubling time (PSAdt) and velocity were calculated by the log-slope method (PSAt=PSAinitial×emt). Data points were expressed as average tumor volume±SEM or average PSA concentration±SEM. […]

[2] = test system: castrate resistant LNCaP tumors; test: Castrate resistant LNCaP xenograft model; format: in vivo; conditions: for tumor volume: Hsp90i-2-PRO 25 mg/kg oral, ASO 15 mg/kg i.p.
Experimental: FIG. 6. […] Mice were treated with 25 mg/kg Hsp90i-2-PRO and 15 mg/kg custirsen starting when serum PSA values relapsed to pre-castration levels. […] Progression-free survival was defined as time for the first tumor volume doubling.
FIG. 7. […] A, tumors were collected after 57 days and CLU, Ki67, AR, AKT and TUNEL were evaluated by immunohistochemical analysis (original magnification: ×200). B, total proteins were extracted from the xenograft tumors and CLU, AR, Akt and PSA were analyzed by western blotting. The relative levels were normalized with vinculin and estimated in densitometric units±SEM.
Male athymic nude mice (Harlan Sprague-Dawley, Inc.) were injected s.c. with 2×10^6 LNCaP cells (suspended in 0.1 mL Matrigel; BD Biosciences). The mice were castrated once tumors reach between 300 and 500 mm^3 or the PSA level increased above 50 ng/mL. Once tumors progressed to castrate resistance, mice were randomly assigned to vehicle, Hsp90i-2-PRO alone, Hsp90i-2-PRO+ScrB ASO or Hsp90i-2-PRO+custirsen. Hsp90i-2-PRO (Prodrug, 25 mg/kg; formulation in 0.5% CMC+0.5% Tween-80) is orally administered three times per week and custirsen or ScrB ASO (15 mg/kg) was injected intra-peritoneally once daily for the first week and then three times per week. Each experimental group consisted of 10 mice. Tumor volume was measured twice weekly (length×width×depth×0.5432). Serum PSA was determined weekly by enzymatic immunoassay (Abbott IMX, Montreal, Quebec, Canada). PSA doubling time (PSAdt) and velocity were calculated by the log-slope method (PSAt=PSAinitial×emt). Data points were expressed as average tumor volume±SEM or average PSA concentration±SEM.
When tumor volume reached 10% of body weight, mice were sacrificed and tumors harvested for evaluation of protein expression by western blotting analyses and immunohistochemistry. All animal procedures were performed according to the guidelines of the Canadian Council on Animal Care and appropriate institutional certification.
Immunohistochemical stains were performed on formalin-fixed and paraffin-embedded 4 μm sections of tumor samples using adequate primary antibody, and the Ventana autostainer Discover XT (Ventana Medical System) with enzyme labeled biotin streptavidin system and solvent resistant 3,3′-diaminobenyidine Map kit. All comparisons of staining intensities were made at 200× magnifications.

[3] = test system: castrate resistant LNCaP tumors; conditions: 50 mg/kg monotherapy, previous study (Lamoureux et al., 2011); cited from earlier work
CLU [4] = test: CLU expression in CRPC LNCaP xenografts (immunohistochemistry and western blot); format: in vivo, mice; conditions: 50 mg/kg Hsp90i-2-PRO for 6 weeks
Experimental: as §1, §2

[5] = Toxicity of Hsp90 inhibitor monotherapy; format: in vivo; conditions: 50 mg/kg/day
LNCaP cells = test: Apoptosis assays: propidium iodide flow cytometry (subG1) and western blotting; format: cell-based, human; conditions: 300 nM custirsen or ScrB twice, then 1 μM Hsp90 inhibitor
Experimental: FIG. 4. Increased potency of CLU knockdown and Hsp90 inhibitor combination treatment in PCa cells. A, LNCaP cells were treated twice with 300 nM custirsen or control ScrB ASO, followed by the indicated concentration of Hsp90i-1 or Hsp90i-2 for 48 h. Cell growth was determined by crystal violet and compared with control. B, dose dependent effects and combination index (CI) values calculated by CalcuSyn software were assessed in LNCap cells treated for 48 h with custirsen alone, Hsp90i-2 alone or combined treatment at indicated concentration with constant ratio design between both drugs. […] C and D, LNCaP cells were treated twice with 300 nM custirsen or control ScrB, followed by 1 μM Hsp90i-1 or Hsp90i-2 for 48 h. […] The proportion of cells in subG1, G0-G1, S, G2-M was determined by propidium iodide staining and caspase-3 activity was determined on the cell lysates and the results are expressed in arbitrary units and corrected for protein content (D). […]
Prostate cells lines were plated in appropriate media (DMEM or RPMI) with 5% FBS and treated with Hsp90i-2-PRO or Hsp90i-1 at indicated concentration and time and cell growth was measured using the crystal violet assay as described previously (Leung et al., 2000). Detection and quantitation of apoptotic cells were done by flow-cytometry (described below) and western blotting analysis. […]

CLU [6] = conditions: Phase II studies (Chi et al., 2005); cited from earlier work
[7] = LNCaP cells, Hsp90 inhibitor at indicated concentrations 48 h, dose-dependent

HSF-1 activity (HSF-1; [7]): significantly induced
Compound: C=CCNC1=C2C[C@@H](C)C[C@H](OC)[C@H](O)[C@@H](C)/C=C(\C)[C@H](OC(N)=O)[C@@H](OC)/C=C\C=C(/C)C(=O)NC(=CC1=O)C2=O [Hsp90i-1, 17-allylamino-17-demethoxygeldanamycin]
toxicity as monotherapy [1]: hepatotoxicity

HSF-1 activity (HSF-1; [7]): significantly induced
Compound: CC1(C)CC(=O)c2c(C(F)(F)F)nn(-c3ccc(C(N)=O)c(NC4CCC(O)CC4)c3)c2C1 (centres unmarked) [Hsp90i-2, 4-(6,6-Dimethyl-4-oxo-3-trifluoromethyl-4,5,6,7-tetrahydro-indazol-1-yl)-2-(4-hydroxy-cyclohexylamino)-benzamide]

Compound: CC1(C)CC(=O)c2c(C(F)(F)F)nn(-c3ccc(C(N)=O)c(NC4CCC(OC(=O)CN)CC4)c3)c2C1 (centres unmarked) [Hsp90i-2-PRO]
Hsp70 increase compared with vehicle treated tumor (Hsp70): 2.3 fold | tumor volume ([2]; 7 weeks post treatment): 2483.6 mm^3 | tumor volume ([2]; at 10 days): 646.4 mm^3 | overall survival ([2]; by day 57): all mice died or were euthanized | mean PSA level ([2]; serum, after 42 days): 527 ng/mL | tumor volume / tumor progression ([2]; sub-therapeutic dose of 25 mg/kg/day HSP90i-2-PRO): marginal, non-significant decreases | effect on serum PSA levels ([2]; sub-therapeutic dose of 25 mg/kg/day, monotherapy): no effect | LNCaP CRPC tumor progression [3]: inhibited | CLU expression increase compared with vehicle treated tumor (CLU [4]): 4 fold | toxicity as monotherapy [5]: body weight loss

Compound: control ScrB ASO: scrambled control oligonucleotide with 2′-O-(2-methoxy)ethyl modification, 5′-CAGCGCTGACAACAGTTTCAT-3′ (SEQ ID NO: 44) (2'-O-methoxyethyl modified, pattern not given here)
apoptotic rates (subG1 fraction) (LNCaP cells): 4.2%

Compound: custirsen: antisense oligonucleotide reducing clusterin expression, CAGCAGCAGAGTCTTCATCAT (SEQ ID NO: 3), phosphorothioate backbone, 2′-O-methoxyethyl wings (antisense e[5mC]*eA*eG*e[5mC]*dA*dG*dC*dA*dG*dA*dG*dT*dC*dT*dT*dC*dA*eT*e[5mC]*eA*eT; listed as Homo sapiens)
HSF-1 activity (HSF-1; LNCaP cells treated twice with 300 nM custirsen vs control ScrB ASO): significantly decreased | apoptotic rates (subG1 fraction) (LNCaP cells): 17.4% | inhibition of CLU in human prostate cancer tissues (CLU [6]): > 90%
